Literature values, collected in patent publication US20050090660A1, “2'-deoxy-L-nucleosides” (priority 1999, published 2005).

Legend:
HBV = HBV patients, two and four week courses
HIV = settings: specificity versus HBV
polymerase γ = target: T1, polymerase γ (Homo sapiens, UniProt P54098); settings: polymerase responsible for mitochondrial DNA chain elongation
T1 sequence (P54098 1-1239): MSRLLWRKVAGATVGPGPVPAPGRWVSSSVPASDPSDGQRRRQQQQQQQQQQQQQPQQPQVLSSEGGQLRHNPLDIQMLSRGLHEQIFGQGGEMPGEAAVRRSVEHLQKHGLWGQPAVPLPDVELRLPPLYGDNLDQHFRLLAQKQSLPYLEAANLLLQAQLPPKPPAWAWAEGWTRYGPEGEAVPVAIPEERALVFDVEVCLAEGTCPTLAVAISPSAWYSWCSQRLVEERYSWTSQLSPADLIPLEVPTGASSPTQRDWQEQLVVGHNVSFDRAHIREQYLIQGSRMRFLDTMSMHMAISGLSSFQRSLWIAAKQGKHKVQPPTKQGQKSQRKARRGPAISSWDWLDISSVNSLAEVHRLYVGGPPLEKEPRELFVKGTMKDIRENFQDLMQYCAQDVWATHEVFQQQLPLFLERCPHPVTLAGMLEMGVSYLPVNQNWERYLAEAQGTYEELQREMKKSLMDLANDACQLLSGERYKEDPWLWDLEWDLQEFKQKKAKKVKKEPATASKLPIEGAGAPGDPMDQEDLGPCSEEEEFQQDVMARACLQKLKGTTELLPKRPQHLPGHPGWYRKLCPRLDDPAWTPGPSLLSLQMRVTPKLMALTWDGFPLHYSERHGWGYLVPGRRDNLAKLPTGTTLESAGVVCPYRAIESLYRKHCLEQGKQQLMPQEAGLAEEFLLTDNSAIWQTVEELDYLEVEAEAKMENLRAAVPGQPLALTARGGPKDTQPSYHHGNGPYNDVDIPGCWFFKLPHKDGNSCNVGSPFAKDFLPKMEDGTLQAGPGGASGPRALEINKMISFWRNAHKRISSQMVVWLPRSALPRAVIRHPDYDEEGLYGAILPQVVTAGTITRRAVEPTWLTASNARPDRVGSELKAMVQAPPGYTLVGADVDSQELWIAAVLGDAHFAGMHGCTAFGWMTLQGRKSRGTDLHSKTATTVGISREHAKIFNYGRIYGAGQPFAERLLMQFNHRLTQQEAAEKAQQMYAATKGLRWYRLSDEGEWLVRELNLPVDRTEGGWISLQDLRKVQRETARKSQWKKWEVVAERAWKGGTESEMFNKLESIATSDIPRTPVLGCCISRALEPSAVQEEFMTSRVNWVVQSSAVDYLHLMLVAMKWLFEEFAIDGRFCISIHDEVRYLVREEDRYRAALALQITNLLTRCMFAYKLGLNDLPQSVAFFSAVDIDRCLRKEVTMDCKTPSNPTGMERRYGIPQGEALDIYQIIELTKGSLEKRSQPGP

[1] = tested on: mitochondrial DNA synthesis and lactic acid production

Row | Structure (SMILES) | suppression of serum HBV DNA levels (HBV) [%] | patients who died from hepatic failure (of the 7 patients with delayed hepatotoxicity, trial with 15 patients) | patients with delayed hepatotoxicity (prolonged treatment trial with 15 patients) [patients] | lactic acid production (hepatoma cell lines) | activity against HIV (HIV) | substrate activity for polymerase γ (polymerase γ) | morphological changes in HepG2 cells (uninfected HepG2 cells; treated at up to 100 μM) | effect on lactic acid production [1] | effect on mitochondrial DNA synthesis [1] | IC50 (uninfected HepG2 cells) [µM]
1 | O=c1[nH]c(=O)n([C@@H]2O[C@H](CO)[C@@H](O)[C@@H]2F)cc1I [FIAU] | ≤ 95 | 5 | 7 | – | – | – | – | – | – | –
2 | Cc1cn([C@H]2O[C@@H](CO)[C@H](O)[C@H]2F)c(=O)[nH]c1=O [L-FMAU] | – | – | – | no significant | – | – | – | – | – | –
3 | Nc1ncnc2c1ncn2[C@@H]1C[C@@H](O)[C@H](CO)O1 [L-dAdo, 2′-deoxy-β-L-adenosine] | – | – | – | – | not HIV | little, if any | no morphological changes | no effect | no effect | –
4 | Nc1ccn([C@@H]2C[C@@H](O)[C@H](CO)O2)c(=O)n1 [L-dCyd, 2′-deoxy-β-L-cytidine] | – | – | – | – | not HIV | little, if any | – | no effect | no effect | > 200
5 | Cc1cn([C@@H]2C[C@@H](O)[C@H](CO)O2)c(=O)[nH]c1=O [L-dThd, 2′-Deoxy-β-L-thymidine] | – | – | – | – | not HIV | little, if any | – | no effect | no effect | > 200
